Experimental data taken from ChEMBL document CHEMBL4602704, “Discovery and Optimization of Glucose Uptake Inhibitors” (J Med Chem, 2020).
≈ marks a conversion by molar mass, not a printed value.

What was measured:
in vivo [1] = details: CD-1, mouse, brain, po, 100 mg/kg
in vitro [2] = details: human, Caco-2
in vitro [3] = details: human, Caco-2; remark: listed apart in the source
[4] = Apparent permeability in human Caco2 cells; format: ADME, cell-based; details: Caco-2
physchem [5] = details: phosphate buffered saline, pH 6.8
physchem [6] = details: phosphate buffered saline, pH 2
physchem [7] = details: phosphate buffered saline, pH 4.5
in vivo [8] = details: mouse, iv, 10 mg/kg
in vivo [9] = details: rat, po, 30 mg/kg
in vitro [10] = details: dog, liver microsomes
in vitro [11] = details: human, liver microsomes
in vivo [12] = details: rat, po, 30 mg/kg; remark: listed apart in the source
in vivo [13] = details: rat, po, 30 mg/kg; remark: listed apart in the source
in vivo [14] = details: rat, iv, 10 mg/kg
in vivo [15] = details: mouse, brain and plasma, po, 30 mg/kg
in vivo [16] = details: mouse, iv, 10 mg/kg; remark: listed apart in the source
in vitro [17] = details: mouse, liver microsomes
in vivo [18] = details: rat
in vivo [19] = details: dog, po, 10 mg/kg
in vitro [20] = details: mouse, plasma
in vivo [21] = details: mouse
in vivo [22] = details: rat, iv, 10 mg/kg; remark: listed apart in the source
in vivo [23] = details: mouse, po, 30 mg/kg
in vitro [24] = details: rat, liver microsomes
in vivo [25] = details: dog, po, 10 mg/kg; remark: listed apart in the source
in vivo [26] = details: mouse, po, 30 mg/kg; remark: listed apart in the source
in vivo [27] = details: mouse, po, 30 mg/kg; remark: listed apart in the source

Molecule CC(C)(C)NC(=O)COc1cccc(-c2nc3c(c(Nc4ccc(-c5cn[nH]c5)cc4)n2)CN(C2CCC2)CC3)c1 has a Kp at 1 h (in vivo [1]) of 0.1, a Papp A→B at 5 µM (in vitro [2]) of 4.58 ×10⁻⁶ cm/s and a Papp B→A at 5 µM (in vitro [3]) of 6.09 ×10⁻⁶ cm/s.
With CCOc1ccc2nc(-c3cccc(OCC(=O)NC(C)C)c3)nc(Nc3ccc(-c4cn[nH]c4)cc3)c2c1 the Papp [4] was 2 ×10⁻⁶ cm/s, the solubility (physchem [5]) was 0.03 µM (≈ 0.0157 µg/mL) and the solubility (physchem [6]) was 3.36 µM (≈ 1.76 µg/mL). It also gave a solubility (physchem [7]) of 0.01 µM (≈ 0.00523 µg/mL).
Work on CC1(NC(=O)COc2cccc(-c3nc4c(c(Nc5ccc(-c6cn[nH]c6)cc5)n3)CN(C3CCC3)CC4)c2)CC1 yielded a clearance (in vivo [8]) of 40 mL/min/kg, an AUC (in vivo [9]) of 6810 ng·h/mL and a Kp at 1 h (in vivo [1]) of 0.05. For the same molecule, the half-life (in vitro [10]) was 0.967 h, the half-life (in vitro [11]) was 1.93 h and the bioavailability (in vivo [12]) was 49.4%. The Cmax (in vivo [13]) was 1680 ng/mL, the Vd (in vivo [14]) was 4.51 L/kg and the Kp at 2 h (in vivo [15]) was 0.05. The Vd (in vivo [16]) was 1.7 L/kg, the Papp A→B at 5 µM (in vitro [2]) was 11.2 ×10⁻⁶ cm/s and the solubility (physchem [5]) was 1.4 µM (≈ 0.77 µg/mL). For the same molecule, the half-life at 2 µM (in vitro [17]) was 1.17 h, the solubility (physchem [6]) was 291 µM (≈ 160 µg/mL) and the half-life (in vivo [18]) was 2.59 h. For the same molecule, the bioavailability (in vivo [19]) was 29%, the Papp B→A at 5 µM (in vitro [3]) was 4.33 ×10⁻⁶ cm/s and the remaining at 18 h (in vitro [20]) was greater than 95%. It also gave a half-life (in vivo [21]) of 0.785 h, a solubility (physchem [7]) of 256 µM (≈ 141 µg/mL) and a clearance (in vivo [22]) of 37 mL/min/kg. For the same molecule, the bioavailability (in vivo [23]) was 45.4%, the half-life at 2 µM (in vitro [24]) was 1.05 h and the bioavailability (in vivo [25]) was 19%. It also gave an AUC (in vivo [26]) of 5890 ng·h/mL and a Cmax (in vivo [27]) of 2520 ng/mL.
